The values below come from patent publication US9132200B2, “Oligomer-calcium channel blocker conjugates” (NEKTAR THERAPEUTICS, priority 2007, dated 2015).

Like-named read-outs stand apart in the source and are kept apart here.

The target of this assay is calcium channel (Rattus norvegicus, UniProt P22002). The experiment in a line: Calcium channel binding assay similar to Example 3, 3[H]-diltiazem as competing radioligand. Here is the method:
[…] […] The reactions were carried out in 50 mM TRIS-HCl (pH 7.7) at 25° C. for 60 minutes. The reaction was terminated by rapid vacuum filtration onto glass fiber filters. […] Molecular Pharmacology 25, 235-241 (1984)).

Where [1] appears, read: Binding Assay No. 2 (Table 2), 3[H]-diltiazem radioligand.

Sequence of calcium channel (P22002 whole entry): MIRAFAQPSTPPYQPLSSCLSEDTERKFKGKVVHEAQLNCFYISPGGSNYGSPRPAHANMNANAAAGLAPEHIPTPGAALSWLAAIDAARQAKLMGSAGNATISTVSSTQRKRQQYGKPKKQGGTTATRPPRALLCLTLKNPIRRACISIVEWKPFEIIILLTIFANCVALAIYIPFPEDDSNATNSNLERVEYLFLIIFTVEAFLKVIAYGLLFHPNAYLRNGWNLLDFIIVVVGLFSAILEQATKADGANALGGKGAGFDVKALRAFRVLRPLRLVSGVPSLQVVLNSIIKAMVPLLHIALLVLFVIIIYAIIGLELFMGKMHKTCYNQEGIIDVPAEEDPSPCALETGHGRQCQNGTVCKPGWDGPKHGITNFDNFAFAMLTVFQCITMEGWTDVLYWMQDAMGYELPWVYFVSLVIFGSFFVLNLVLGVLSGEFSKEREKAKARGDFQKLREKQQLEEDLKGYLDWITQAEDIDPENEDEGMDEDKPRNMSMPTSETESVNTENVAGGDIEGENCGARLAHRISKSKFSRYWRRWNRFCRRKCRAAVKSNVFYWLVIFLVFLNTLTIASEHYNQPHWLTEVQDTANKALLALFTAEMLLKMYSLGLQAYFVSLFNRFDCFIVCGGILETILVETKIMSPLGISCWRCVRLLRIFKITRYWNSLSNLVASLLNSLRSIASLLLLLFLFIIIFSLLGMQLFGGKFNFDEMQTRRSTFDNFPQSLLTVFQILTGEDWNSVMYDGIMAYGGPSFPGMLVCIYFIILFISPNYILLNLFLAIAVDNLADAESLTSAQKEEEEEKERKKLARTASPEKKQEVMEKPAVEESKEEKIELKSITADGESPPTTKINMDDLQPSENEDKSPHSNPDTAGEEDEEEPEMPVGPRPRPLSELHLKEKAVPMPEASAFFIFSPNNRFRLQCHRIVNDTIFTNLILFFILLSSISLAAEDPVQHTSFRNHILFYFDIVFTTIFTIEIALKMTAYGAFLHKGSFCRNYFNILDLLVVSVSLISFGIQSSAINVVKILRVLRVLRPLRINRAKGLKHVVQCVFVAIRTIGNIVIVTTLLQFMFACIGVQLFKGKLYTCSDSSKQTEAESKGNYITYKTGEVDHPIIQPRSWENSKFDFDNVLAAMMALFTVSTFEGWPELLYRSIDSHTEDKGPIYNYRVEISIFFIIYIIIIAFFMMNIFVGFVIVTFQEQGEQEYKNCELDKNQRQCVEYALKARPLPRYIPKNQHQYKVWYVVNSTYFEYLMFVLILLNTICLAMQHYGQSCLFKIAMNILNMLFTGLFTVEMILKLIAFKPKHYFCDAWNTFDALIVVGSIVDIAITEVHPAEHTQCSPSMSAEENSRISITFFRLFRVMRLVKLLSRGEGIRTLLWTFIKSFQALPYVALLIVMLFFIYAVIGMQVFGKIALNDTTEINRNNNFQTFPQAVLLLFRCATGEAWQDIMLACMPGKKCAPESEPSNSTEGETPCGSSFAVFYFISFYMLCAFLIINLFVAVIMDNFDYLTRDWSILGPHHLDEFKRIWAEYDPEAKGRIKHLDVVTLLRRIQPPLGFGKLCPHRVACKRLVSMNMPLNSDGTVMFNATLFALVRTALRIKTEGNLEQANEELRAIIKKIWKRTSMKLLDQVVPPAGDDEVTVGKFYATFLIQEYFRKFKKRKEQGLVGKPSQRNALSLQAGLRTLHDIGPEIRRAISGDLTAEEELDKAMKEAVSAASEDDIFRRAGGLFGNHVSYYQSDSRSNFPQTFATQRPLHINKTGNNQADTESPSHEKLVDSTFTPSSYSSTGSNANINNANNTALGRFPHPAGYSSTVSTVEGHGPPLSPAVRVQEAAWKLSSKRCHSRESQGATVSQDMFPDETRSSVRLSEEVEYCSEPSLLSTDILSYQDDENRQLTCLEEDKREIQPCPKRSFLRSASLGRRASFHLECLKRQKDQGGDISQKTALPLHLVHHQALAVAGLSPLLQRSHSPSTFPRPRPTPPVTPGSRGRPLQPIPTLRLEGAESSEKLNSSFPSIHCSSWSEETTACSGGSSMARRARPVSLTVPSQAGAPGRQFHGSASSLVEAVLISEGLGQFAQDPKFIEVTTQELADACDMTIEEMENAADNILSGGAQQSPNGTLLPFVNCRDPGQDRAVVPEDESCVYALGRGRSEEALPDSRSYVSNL

`COCCOCCOCCOCCOCCOc1ccc(CCN(C)CCCC(C#N)(c2ccc(OC)c(OC)c2)C(C)C)cc1OC` (stereo not shown) [mPEG5-O-Verapamil, O-mPEG5-verapamil]: the IC50 under setting [1] is 852 nM.

Take `COCCOCCOCCOCCOCCOCCOCCOc1ccc(CCN(C)CCCC(C#N)(c2ccc(OC)c(OC)c2)C(C)C)cc1OC` (stereo not shown) [mPEG7-O-Verapamil, O-mPEG7-verapamil]: under setting [1], the IC50 stood at 1130 nM.

`COCCOCCOCCOc1ccc(CCN(C)CCCC(C#N)(c2ccc(OC)c(OC)c2)C(C)C)cc1OC` (stereo not shown) [mPEG3-O-Verapamil, O-mPEG3-verapamil]: under setting [1], the IC50 amounted to 541 nM. As for `COCCOCCOCCOCCOCCOCCOc1ccc(CCN(C)CCCC(C#N)(c2ccc(OC)c(OC)c2)C(C)C)cc1OC` (stereo not shown) [mPEG6-O-Verapamil, O-mPEG6-verapamil], the IC50 is 349 nM.

As usually defined, the IC50 is the concentration that inhibits the measured activity by half.
